Source: patent US12042492B2 (priority 2020, dated 2024)
“Also recorded” adds a separate entry of the source.

Tests used:
mAPP N2a cells [1] = test: Immunoblotting analysis of protein levels in mAPP N2a cells; type: cell-based, mouse; settings: immunoblot; for Nrf1 protein level / Nrf2 protein level: P=0.004
BACE1 = molecular target: T1, BACE1 (Mus musculus, UniProt P56818); test: Sandwich ELISA of BACE1 activity in mAPP N2a cells; type: cell-based; settings: mAPP cells treated with ligand 1 relative to untreated mAPP cells; P=0.001
T1 construct: endogenous in cells; host or cells: N2a mouse neuroblastoma cells (ATCC) transfected with mutant APP Swe/Ind cDNA
Text: ELISA Ligand based inhibition of BACE1 activity, Aβ 40 and 42. BACE1 activity, Levels of Aβ40 and 42. To determine whether ligand 1 lowers BACE1 activity and reducing the Aβ40 and Aβ42 levels, the inventors measured BACE1 activity, Aβ40 and Aβ42 levels in mutant APP cells (N2a+mutant cDNA transfected) treated with ligand 1 using Sandwich ELISA.
The N2a cells grown for 6 days in a serum-free medium (1:1 mixture of DMEM and OptiMEM, plus penicillin and streptomycin (Invitrogen, Carlsbad, CA, USA) until the cells developed neuronal processes. As shown in (FIG. 10), these cells were used for 4 groups—one control group and 3 treatment groups. 1) untreated N2a cells (the control group), 2) N2a cells treated with ligand 1 (N2a+ligand 1), 3) N2a cells transfected mAPP with the (lipofectamine) (20 μM final concentration for 6 hrs (mAPP), 4) N2a cells transfected with mAPP cDNA for 6 hrs, treated with ligand 1 (mAPP+ligand 1 treatment group), N2a cells treated with ligand 1 for 24 hrs and then treated with the mAPP cDNA for 6 hrs (ligand 1+mAPP treatment group). […]
ELISA Ligand based BACE1 inhibition of Aβ 40 and 42. […] For each sample, Aβ1-40 and Aβ1-42 were measured with commercial colorimetric ELISA kits (Biosource International, Camarillo, CA, USA) specific for human. […] Protein concentrations of the homogenates were determined following the […], and Aβ was expressed as pg Aβ/mg protein.

mAPP N2a cells [2] = test: Immunofluorescence analysis of BACE1, 6E10 and CTF; type: cell-based, mouse; settings: ligand 1-treated mAPP N2a cells relative to untreated mAPP N2a cells, P=0.01
Protocol: Immunofluorescence analysis of BACE1, 6E10 and CTF. To determine the effect of ligand 1 on BACE1, 6E10 and C-terminal fragments, immunofluorescence analysis was performed on four different groups of cells: 1) untreated N2a cells versus; 2) N2a+ligand 1; 3); cells transfected with mAPP and 4) mAPP+ligand 1.
Immunofluorescence analysis of BACE1, 6E10 and CTF. To determine BACE1, 6E10, CTF inhibition, mitochondrial network, immunofluorescence analysis was performed using mutant AβPP cells and untransfected N2a and TOM20 antibody as described in (35). The fixed cells were washed with warm PBS, fixed in freshly prepared 4% paraformaldehyde in PBS for 10 minutes, then washed with PBS and permeabilized with 0.1% Triton-X100 in PBS. They were blocked with a 1% blocking solution (Invitrogen) for 1 hour at room temperature. All sections were incubated overnight with TOM20 antibody (1:250 dilution). After incubation, the cells were washed 3 times with PBS, for 10 minutes each. The cells were incubated with a secondary antibody conjugated with Fluor 488 (Invitrogen) for 1 hour at room temperature. The cells were washed 3 times with PBS and mounted on slides. Photographs were taken with a multiphoton laser scanning microscope system (ZeissMeta LSM510). To quantify the immunoreactivity of TOM20 antibody for each treatment, 10-15 photographs were taken at ×40 magnifications, and statistical significance was assessed, using one-way ANOVA for TOM20 protein.

[3] = mAPP+ligand 1 relative to mAPP cells, P=0.001
[4] = mAPP+ligand 1 relative to mAPP cells, P=0.002, listed as ligand 1
[5] = mAPP+ligand 1 relative to mAPP cells, listed as ligand 1
[6] = mAPP+ligand 1 relative to mAPP cells, listed as ligand1
[7] = mAPP+ligand 1 relative to mAPP cells, P=0.01, listed as ligand 1
[8] = mAPP+ligand 1 relative to mAPP cells, P=0.01, listed as ligand1
[9] = mAPP+ligand 1 relative to mAPP cells, P=0.02

T1 sequence (P56818 46-501): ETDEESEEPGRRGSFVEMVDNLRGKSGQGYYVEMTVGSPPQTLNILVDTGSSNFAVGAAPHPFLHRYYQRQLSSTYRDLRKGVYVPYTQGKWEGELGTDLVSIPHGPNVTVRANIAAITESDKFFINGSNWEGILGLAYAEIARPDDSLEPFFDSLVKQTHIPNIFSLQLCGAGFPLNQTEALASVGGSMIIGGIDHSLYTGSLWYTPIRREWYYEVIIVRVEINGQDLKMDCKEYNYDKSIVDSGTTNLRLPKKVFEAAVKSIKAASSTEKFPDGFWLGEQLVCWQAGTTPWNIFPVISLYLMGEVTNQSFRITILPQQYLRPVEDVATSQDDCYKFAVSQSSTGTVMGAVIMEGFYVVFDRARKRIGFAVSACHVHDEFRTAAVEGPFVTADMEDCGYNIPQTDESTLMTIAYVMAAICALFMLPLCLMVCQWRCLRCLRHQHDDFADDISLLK

[(6As,8S,10aS,12aS)-10a, 12a-dimethyl-2-oxo-3,4,4a,4b,5,6,6a,7,8,9,10,10b,11,12-tetradecahydro-1H-naphtho[2,1-f]quinolin-8-yl] 4-[4-[bis(2-chloroethyl)amino]phenyl]butanoate [Ligand 1]
BACE1 protein level (mAPP N2a cells [1]; ligand 1 treated cells relative to mAPP cells): significantly reduced | C-terminal fragment C99 protein level (mAPP N2a cells [1]; [3]): significantly decreased; also recorded: significantly reduced | Fis1 protein level (mAPP N2a cells [1]; [3]): significantly decreased | C-terminal fragment C83 protein level (mAPP N2a cells [1]; [4]): significantly decreased; also recorded: significantly reduced | Mfn1 protein level (mAPP N2a cells [1]; [4]): increased | Mfn1 protein level (mAPP N2a cells [1]; mAPP+ligand 1 relative to mAPP cells, P=0.002, listed as ligand1): significantly increased | Nrf1 protein level (mAPP N2a cells [1]; [5]): increased | Nrf2 protein level (mAPP N2a cells [1]; [5]): increased | Nrf1 protein level (mAPP N2a cells [1]; [6]): significantly increased | Nrf2 protein level (mAPP N2a cells [1]; [6]): significantly increased | Drp1 protein level (mAPP N2a cells [1]; mAPP+ligand 1 relative to mAPP cells, P=0.01): significantly decreased | Opa1 protein level (mAPP N2a cells [1]; [7]): increased | PGC1α protein level (mAPP N2a cells [1]; [7]): increased | Opa1 protein level (mAPP N2a cells [1]; [8]): significantly increased | PGC1α protein level (mAPP N2a cells [1]; [8]): significantly increased | PSD95 protein level (mAPP N2a cells [1]; [9]): significantly increased | Synaptophysin protein level (mAPP N2a cells [1]; [9]): significantly increased | Full-length mutant APP protein level (mAPP N2a cells [1]; mAPP+ligand 1 relative to mAPP cells, P=0.03): significantly decreased; also recorded: significantly reduced | MAP2 protein level (mAPP N2a cells [1]; mAPP+ligand 1 relative to mAPP cells, P=0.04): significantly increased | Mfn2 protein level (mAPP N2a cells [1]; [5]): increased | TFAM protein level (mAPP N2a cells [1]; [5]): increased | Mfn2 protein level (mAPP N2a cells [1]; [6]): significantly increased | TFAM protein level (mAPP N2a cells [1]; [6]): significantly increased | BACE1 activity (BACE1): significantly lower; also recorded: significantly reduced | 6E10 immunoreactivity (mutant APP and Aβ) (mAPP N2a cells [2]): significantly lower; also recorded: significantly reduced | BACE1 immunoreactivity (mAPP N2a cells [2]): significantly lower; also recorded: significantly reduced | C-terminal fragment (CTF) immunoreactivity (mAPP N2a cells [2]): significantly lower; also recorded: significantly reduced
